Experimental data as given in US11096985B2, “Antimicrobial peptides, their variants and uses” (priority 2015, dated 2021).
Where a SMILES comes first, the peptide text is derived from it. [ ]: non-standard residue; d: D form.

How the values were obtained:
[1] = test system: clinical strains of Serratia marcescens; assay: MIC, clinical strains of Serratia marcescens; type: cell-based; set-up: unit: µg/mL; conditions: microdilution, Muller Hinton broth-cation adjusted, 0.02% BSA, 0.2% acetic acid
Method in brief: (§1)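 Clinical isolates at 5.0×10^5 cfu/ml in Mueller-Hinton broth (Potato dextrose broth for yeasts) were exposed to Chain peptides at 0.125–128 μg/ml by broth microdilution, 37 °C for 20–24 h. MIC was the lowest concentration with no visible growth.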

[2] = test system: clinical strains of Enterobacter cloacae; assay: MIC, clinical strains of Enterobacter cloacae; type: cell-based; set-up: unit: μg/ml; conditions: microdilution, Muller Hinton broth-cation adjusted, 0.02% BSA, 0.2% acetic acid
Method in brief: as §1

[3] = test system: clinical strains of C. glabrata; assay: MIC, clinical yeast strains, C. glabrata; type: cell-based, Candida glabrata; set-up: unit: μg/ml
Method in brief: as §1

[4] = test system: clinical strains of C. quillermondiae; assay: MIC, clinical yeast strains, C. quillermondiae; type: cell-based; conditions: C. quillermondiae clinical yeast strain 1
Method in brief: as §1

[5] = test system: clinical strains of Streptococcus pneumoniae; assay: MIC, clinical strains of Streptococcus pneumoniae; type: cell-based; set-up: unit: µg/mL; conditions: microdilution, Muller Hinton broth-cation adjusted, 0.02% BSA, 0.2% acetic acid
Method in brief: as §1

[6] = test system: clinical strains of Pseudomonas aeruginosa; assay: MIC, clinical strains of P. aeruginosa; type: cell-based; set-up: unit: μg/ml; conditions: microdilution, Muller Hinton broth-cation adjusted, 0.02% BSA, 0.2% acetic acid
Method in brief: as §1

[7] = test system: clinical strains of Candida albicans; assay: MIC, clinical yeast strains, Candida albicans; type: cell-based; set-up: unit: μg/ml
Method in brief: as §1

[8] = test system: clinical strains of Proteus mirabilis; assay: MIC, clinical strains of Proteus mirabilis; type: cell-based; set-up: unit: µg/mL; conditions: microdilution, Muller Hinton broth-cation adjusted, 0.02% BSA, 0.2% acetic acid
Method in brief: as §1

[9] = test system: clinical strains of Staphylococcus aureus; assay: MIC, clinical strains of S. aureus; type: cell-based; set-up: unit: μg/ml; conditions: microdilution, Muller Hinton broth-cation adjusted, 0.02% BSA, 0.2% acetic acid
Method in brief: as §1

[10] = test system: clinical strains of Acinetobacter baumannii; assay: MIC, clinical strains of Acinetobacter baumannii; type: cell-based; conditions: microdilution, Muller Hinton broth-cation adjusted, 0.02% BSA, 0.2% acetic acid
Method: Minimum inhibition concentrations (MICs) were determined against Escherichia coli (ATCC 25922), Staphylococcus aureus (ATCC 25923), Klebsiella pneumoniae (ATCC 10031) and Pseudomonas aeruginosa (ATCC 27853). Also clinical strains of E. coli, K. pneumoniae, E. cloacae, P. aeruginosa, Serratia marcescens, Proteus mirabilis, S. pneumoniae, Acinetobacter baumannii, A. johnsonii and S. aureus were used for MICs assays. Additionally, clinical strains of yeast including Candida albicans, C. glabrata, C. parapsilosis and C. quillermondiae were used. The susceptibility of these microorganisms to Chain peptides were determined using micro broth dilution assay. Colonies of the respective microorganism from Muller Hinton (MH) agar plates incubated overnight were suspended in MH broth media and final concentration of microorganism was adjusted to 5.0×10^5 cfu/ml. An aliquot of 10 μl of each Chain peptide, or gentamicin, tetracycline as reference antibiotics were added in differing concentrations along with 90 μl of bacterial suspension to 96 well polypropylene plates and incubated at 37° C. for 20 to 24 hours. Concentrations of Chain peptides and reference antibiotics ranged from 0.125 to 128 μg/ml and the MICs were recorded as the lowest concentration with no visual growth of bacteria. Similarly, antifungal MICs were tested in Potato dextrose broth.
Clinical strains of yeasts including Candida albicans, C. glabrata, C. parapsilosis and C. quillermondiae were also tested with the 12 Chain peptides. The minimum inhibitory concentration (MICs) varied between these peptides and are presented in Tables 4a, 4b, 4c and 5a, 5b, 5c. Peptides Chain 105, 201 and 308 are broad spectrum antimicrobials with MICs between 0.5-32 μg/ml against all the bacteria and yeasts tested, except Serratia marcescens and Proteus mirabilis, against which the MICs were between 64-128 μg/ml. Peptide Chain 306 has narrow spectrum activity against E.coli at 1 μg/ml and for the rest of the bacterial strains at >32 μg/ml (FIG. 10).

[11] = test system: clinical strains of C. parapsilosis; assay: MIC, clinical yeast strains, C. parapsilosis; type: cell-based, Candida parapsilosis; set-up: unit: μg/ml
Method in brief: as §1

[12] = test system: clinical strains of Escherichia coli; assay: MIC, clinical strains of E. coli; type: cell-based; set-up: unit: μg/ml; conditions: microdilution, Muller Hinton broth-cation adjusted, 0.02% BSA, 0.2% acetic acid
Method in brief: as §1

[13] = test system: clinical strains of Klebsiella pneumoniae; assay: MIC, clinical strains of K. pneumoniae; type: cell-based; set-up: unit: μg/ml; conditions: microdilution, Muller Hinton broth-cation adjusted, 0.02% BSA, 0.2% acetic acid
Method in brief: as §1

**Q.** What does the source list for `CC[C@@H](C)[C@@H](NC(=O)[C@@H](CC(C)C)NC(=O)[C@@H](CCCNC(=N)N)NC(=O)[C@H](N)CCCNC(=N)N)C(=O)N[C@H](Cc1c[nH]c2ccccc12)C(=O)N[C@H](CCCNC(=N)N)C(=O)N[C@H](CCCNC(=N)N)C(=O)N[C@H](Cc1ccccc1)C(=O)N[C@H](CCCCN)C(=O)N[C@H](Cc1c[nH]c2ccccc12)C(=O)N[C@H](CC(C)C)C(=O)N[C@H](CCCNC(=N)N)C(=O)O` [Chain204D] (H-[dR][dR][dL][dI][dW][dR][dR][dF][dK][dW][dL][dR]-OH)?
**A.** Minimum inhibitory concentration ([1]; Serratia marcescens clinical strain 1): >128; Minimum inhibitory concentration ([1]; Serratia marcescens clinical strain 2): >128; Minimum inhibitory concentration ([1]; Serratia marcescens clinical strain 3): 128; Minimum inhibitory concentration ([1]; Serratia marcescens clinical strain 4): >128; Minimum inhibitory concentration ([1]; Serratia marcescens clinical strain 5): >128; Minimum inhibitory concentration ([2]; Enterobacter cloacae clinical strain 1): 4; Minimum inhibitory concentration ([2]; Enterobacter cloacae clinical strain 2): 8; Minimum inhibitory concentration ([2]; Enterobacter cloacae clinical strain 3): 4; Minimum inhibitory concentration ([2]; Enterobacter cloacae clinical strain 4): 8; Minimum inhibitory concentration ([2]; Enterobacter cloacae clinical strain 5): 2; Minimum inhibitory concentration ([3]; C. glabrata clinical yeast strain 1): 4; Minimum inhibitory concentration ([3]; C. glabrata clinical yeast strain 2): 8; Minimum inhibitory concentration ([3]; C. glabrata clinical yeast strain 3): 32; Minimum inhibitory concentration ([3]; C. glabrata clinical yeast strain 4): 32; Minimum inhibitory concentration [4]: 4; Minimum inhibitory concentration ([5]; Streptococcus pneumoniae clinical strain 1): 4; Minimum inhibitory concentration ([5]; Streptococcus pneumoniae clinical strain 2): 4; Minimum inhibitory concentration ([5]; Streptococcus pneumoniae clinical strain 3): 4; Minimum inhibitory concentration ([5]; Streptococcus pneumoniae clinical strain 4): 4; Minimum inhibitory concentration ([5]; Streptococcus pneumoniae clinical strain 5): 4; Minimum inhibitory concentration ([6]; Pseudomonas aeruginosa clinical strain 1): 4; Minimum inhibitory concentration ([6]; Pseudomonas aeruginosa clinical strain 2): 16; Minimum inhibitory concentration ([6]; Pseudomonas aeruginosa clinical strain 3): 8; Minimum inhibitory concentration ([6]; Pseudomonas aeruginosa clinical strain 4): 8; Minimum inhibitory concentration ([6]; Pseudomonas aeruginosa clinical strain 5): 4; Minimum inhibitory concentration ([7]; Candida albicans clinical yeast strain 1): 8; Minimum inhibitory concentration ([7]; Candida albicans clinical yeast strain 2): 8; Minimum inhibitory concentration ([7]; Candida albicans clinical yeast strain 3): 8; Minimum inhibitory concentration ([7]; Candida albicans clinical yeast strain 4): 8; Minimum inhibitory concentration ([7]; Candida albicans clinical yeast strain 5): 8; Minimum inhibitory concentration ([8]; Proteus mirabilis clinical strain 1): >128; Minimum inhibitory concentration ([8]; Proteus mirabilis clinical strain 2): 32; Minimum inhibitory concentration ([8]; Proteus mirabilis clinical strain 3): 64; Minimum inhibitory concentration ([8]; Proteus mirabilis clinical strain 4): >128; Minimum inhibitory concentration ([8]; Proteus mirabilis clinical strain 5): >128; Minimum inhibitory concentration ([9]; Staphylococcus aureus clinical strain 1): 1; Minimum inhibitory concentration ([9]; Staphylococcus aureus clinical strain 2): 2; Minimum inhibitory concentration ([9]; Staphylococcus aureus clinical strain 3): 2; Minimum inhibitory concentration ([9]; Staphylococcus aureus clinical strain 4): 1; Minimum inhibitory concentration ([9]; Staphylococcus aureus clinical strain 5): 1; Minimum inhibitory concentration ([10]; Acinetobacter baumannii clinical strain 1): 4; Minimum inhibitory concentration ([10]; Acinetobacter baumannii clinical strain 2): 4; Minimum inhibitory concentration ([10]; Acinetobacter baumannii clinical strain 3): 4; Minimum inhibitory concentration ([10]; Acinetobacter baumannii clinical strain 4): 4; Minimum inhibitory concentration ([10]; Acinetobacter baumannii clinical strain 5): 4; Minimum inhibitory concentration ([11]; C. parapsilosis clinical yeast strain 1): 4; Minimum inhibitory concentration ([11]; C. parapsilosis clinical yeast strain 2): 4; Minimum inhibitory concentration ([11]; C. parapsilosis clinical yeast strain 3): 8; Minimum inhibitory concentration ([11]; C. parapsilosis clinical yeast strain 4): 8; Minimum inhibitory concentration ([12]; Escherichia coli clinical strain 1): 8; Minimum inhibitory concentration ([12]; Escherichia coli clinical strain 2): 1; Minimum inhibitory concentration ([12]; Escherichia coli clinical strain 3): 1; Minimum inhibitory concentration ([12]; Escherichia coli clinical strain 4): 1; Minimum inhibitory concentration ([12]; Escherichia coli clinical strain 5): 1; Minimum inhibitory concentration ([13]; Klebsiella pneumoniae clinical strain 1): 8; Minimum inhibitory concentration ([13]; Klebsiella pneumoniae clinical strain 2): 4; Minimum inhibitory concentration ([13]; Klebsiella pneumoniae clinical strain 3): 16; Minimum inhibitory concentration ([13]; Klebsiella pneumoniae clinical strain 4): 4; Minimum inhibitory concentration ([13]; Klebsiella pneumoniae clinical strain 5): 2
